Measured values: the supplement of paper PMC11208160

Assay: recombinant UMI read abundance after kanamycin selection (control-corrected) (log10(CPM+1)); higher = more efficient recombination; extreme values may be limits of the assay; sequences stand for … in AGTGCAGAGAAAATCGGCCAGTTTTCTCTGCCTGCAGTCCGCATGCCGTGGGACCCCTTGGGTTCTAACCTGTTGCCTAGATTTATGCAGCGGACTGCCTTTCTCCCAAAGTGATAAACCGG…AGGTTGGTTTCACT; site = the 11-nt donor
How it was run: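 Two replicates each of selected and unselected plating were used in this pooled Escherichia coli screen of donor and donor-binding-loop pairs for the IS621 bridge recombinase. Selection was with IPTG (0.07 mM) and kanamycin. Counts of recombinant UMIs, amplified across the donor–target junction, were converted to CPM, averaged, scaled by control-derived factors and reported as log10(CPM+1).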
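Note: IS621 bridge recombinase in Escherichia coli cells against a fixed T5 target plasmid.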

Sequence	recombinant UMI read abundance (log10)
GTTACGTCATGGACCGGTTTTCCCGGTAATCCGTATTTGTT (site GTTACGTCTAA)	0.504
GTTAGAACATGGACCGGTTTTCCCGGTAATCCGTATTTGGC (site ATTAGAACTGC)	0
GTTAGAACATGGACCGGTTTTCCCGGTAATCCGTATTTGGC (site CTTAGAACTGC)	0
GTTAGAACATGGACCGGTTTTCCCGGTAATCCGTATTTGGC (site GATAGAACTGC)	0
GTTAGAACATGGACCGGTTTTCCCGGTAATCCGTATTTGGC (site GCTAGAACTGC)	0
GTTAGAACATGGACCGGTTTTCCCGGTAATCCGTATTTGGC (site GGTAGAACTGC)	0
GTTAGAACATGGACCGGTTTTCCCGGTAATCCGTATTTGGC (site GTAAGAACTGC)	0
GTTAGAACATGGACCGGTTTTCCCGGTAATCCGTATTTGGC (site GTCAGAACTGC)	0
GTTAGAACATGGACCGGTTTTCCCGGTAATCCGTATTTGGC (site GTGAGAACTGC)	0
GTTAGAACATGGACCGGTTTTCCCGGTAATCCGTATTTGGC (site GTTAAAACTGC)	0
GTTAGAACATGGACCGGTTTTCCCGGTAATCCGTATTTGGC (site GTTACAACTGC)	0
GTTAGAACATGGACCGGTTTTCCCGGTAATCCGTATTTGGC (site GTTAGAACTAC)	0.00468
GTTAGAACATGGACCGGTTTTCCCGGTAATCCGTATTTGGC (site GTTAGAACTCC)	0.0522
GTTAGAACATGGACCGGTTTTCCCGGTAATCCGTATTTGGC (site GTTAGAACTGA)	0
GTTAGAACATGGACCGGTTTTCCCGGTAATCCGTATTTGGC (site GTTAGAACTGC)	1.59
GTTAGAACATGGACCGGTTTTCCCGGTAATCCGTATTTGGC (site GTTAGAACTGG)	0
GTTAGAACATGGACCGGTTTTCCCGGTAATCCGTATTTGGC (site GTTAGAACTGT)	0
GTTAGAACATGGACCGGTTTTCCCGGTAATCCGTATTTGGC (site GTTAGAACTTC)	0
GTTAGAACATGGACCGGTTTTCCCGGTAATCCGTATTTGGC (site GTTAGACCTGC)	0
GTTAGAACATGGACCGGTTTTCCCGGTAATCCGTATTTGGC (site GTTAGAGCTGC)	0.0184
GTTAGAACATGGACCGGTTTTCCCGGTAATCCGTATTTGGC (site GTTAGATCTGC)	0.83
GTTAGAACATGGACCGGTTTTCCCGGTAATCCGTATTTGGC (site GTTAGCACTGC)	0.506
GTTAGAACATGGACCGGTTTTCCCGGTAATCCGTATTTGGC (site GTTAGGACTGC)	0.0154
GTTAGAACATGGACCGGTTTTCCCGGTAATCCGTATTTGGC (site GTTAGTACTGC)	0
GTTAGAACATGGACCGGTTTTCCCGGTAATCCGTATTTGGC (site GTTATAACTGC)	1.54

Sequence	recombinant UMI read abundance (log10)
GTTAGAACATGGACCGGTTTTCCCGGTAATCCGTATTTGGC (site GTTCGAACTGC)	0
GTTAGAACATGGACCGGTTTTCCCGGTAATCCGTATTTGGC (site GTTGGAACTGC)	0.696
GTTAGAACATGGACCGGTTTTCCCGGTAATCCGTATTTGGC (site GTTTGAACTGC)	0
GTTAGAACATGGACCGGTTTTCCCGGTAATCCGTATTTGGC (site TTTAGAACTGC)	0
GTTAGAACATGGACCGGTTTTCCCGGTAATCCGTATTTGGT (site GTTAGAACTAC)	0.908
GTTAGAACATGGACCGGTTTTCCCGGTAATCCGTATTTGGT (site GTTAGAACTCC)	0.0129
GTTAGAACATGGACCGGTTTTCCCGGTAATCCGTATTTGGT (site GTTAGAACTGC)	0
GTTAGAACATGGACCGGTTTTCCCGGTAATCCGTATTTGGT (site GTTAGAACTTC)	0.0194
GTTAGACCATGGACCGGTTTTCCCGGTAATCCGTATTTGGA (site GTTAGACCTTC)	0.00772
GTTAGACCATGGACCGGTTTTCCCGGTAATCCGTATTTGGC (site GTTAGAACTGC)	0
GTTAGACCATGGACCGGTTTTCCCGGTAATCCGTATTTGGC (site GTTAGACCTGC)	0
GTTAGACCATGGACCGGTTTTCCCGGTAATCCGTATTTGGC (site GTTAGAGCTGC)	0
GTTAGACCATGGACCGGTTTTCCCGGTAATCCGTATTTGGC (site GTTAGATCTGC)	0
GTTAGAGCATGGACCGGTTTTCCCGGTAATCCGTATTTGGC (site GTTAGAACTGC)	2.02
GTTAGAGCATGGACCGGTTTTCCCGGTAATCCGTATTTGGC (site GTTAGACCTGC)	0
GTTAGAGCATGGACCGGTTTTCCCGGTAATCCGTATTTGGC (site GTTAGAGCTGC)	2.22
GTTAGAGCATGGACCGGTTTTCCCGGTAATCCGTATTTGGC (site GTTAGATCTGC)	1.51
GTTAGGACATGGACCGGTTTTCCCGGTAATCCGTATTTGGC (site GTTAGAACTGC)	1.16
GTTAGGACATGGACCGGTTTTCCCGGTAATCCGTATTTGGC (site GTTAGCACTGC)	0
GTTAGGACATGGACCGGTTTTCCCGGTAATCCGTATTTGGC (site GTTAGGACTGC)	2.84
GTTAGGACATGGACCGGTTTTCCCGGTAATCCGTATTTGGC (site GTTAGTACTGC)	0
GTTATTCCATGGACCGGTTTTCCCGGTAATCCGTATTTGGT (site GTTATTCCTAC)	0.469
GTTATTCCATGGACCGGTTTTCCCGGTAATCCGTATTTGGT (site GTTCTTCCTAC)	0
GTTATTCCATGGACCGGTTTTCCCGGTAATCCGTATTTGGT (site GTTGTTCCTAC)	0.00973
GTTATTCCATGGACCGGTTTTCCCGGTAATCCGTATTTGGT (site GTTTTTCCTAC)	0

Sequence	recombinant UMI read abundance (log10)
GTTCACGCATGGACCGGTTTTCCCGGTAATCCGTATTTGTT (site GTTCACGCTAA)	1
GTTCATACATGGACCGGTTTTCCCGGTAATCCGTATTTGTG (site GTTCATACTCA)	0.505
GTTCCGGCATGGACCGGTTTTCCCGGTAATCCGTATTTGCC (site GTTCCGGCTGG)	0
GTTCGAGCATGGACCGGTTTTCCCGGTAATCCGTATTTGAA (site GTTCGAGCTTA)	0.307
GTTCGAGCATGGACCGGTTTTCCCGGTAATCCGTATTTGAA (site GTTCGAGCTTC)	0
GTTCGAGCATGGACCGGTTTTCCCGGTAATCCGTATTTGAA (site GTTCGAGCTTG)	0
GTTCGAGCATGGACCGGTTTTCCCGGTAATCCGTATTTGAA (site GTTCGAGCTTT)	1.41
GTTCGAGCATGGACCGGTTTTCCCGGTAATCCGTATTTGCT (site GTTCGAGCTAG)	1.9
GTTCGAGCATGGACCGGTTTTCCCGGTAATCCGTATTTGCT (site GTTCGAGCTCG)	0.664
GTTCGAGCATGGACCGGTTTTCCCGGTAATCCGTATTTGCT (site GTTCGAGCTGG)	0.928
GTTCGAGCATGGACCGGTTTTCCCGGTAATCCGTATTTGCT (site GTTCGAGCTTG)	1.03
GTTCGAGCATGGACCGGTTTTCCCGGTAATCCGTATTTGGA (site GTTCGAGCTTA)	0.635
GTTCGAGCATGGACCGGTTTTCCCGGTAATCCGTATTTGGA (site GTTCGAGCTTC)	0.499
GTTCGAGCATGGACCGGTTTTCCCGGTAATCCGTATTTGGA (site GTTCGAGCTTG)	0
GTTCGAGCATGGACCGGTTTTCCCGGTAATCCGTATTTGGA (site GTTCGAGCTTT)	0.942
GTTCGATCATGGACCGGTTTTCCCGGTAATCCGTATTTGCC (site GTTCGATCTGG)	1.92
GTTCGTACATGGACCGGTTTTCCCGGTAATCCGTATTTGCA (site GTTCGTACTTG)	1.64
GTTCGTACATGGACCGGTTTTCCCGGTAATCCGTATTTGTT (site GTTCGTACTAA)	0.0105
GTTCGTGCATGGACCGGTTTTCCCGGTAATCCGTATTTGCA (site GTTCGAGCTTG)	0.585
GTTCGTGCATGGACCGGTTTTCCCGGTAATCCGTATTTGCA (site GTTCGCGCTTG)	0.0038
GTTCGTGCATGGACCGGTTTTCCCGGTAATCCGTATTTGCA (site GTTCGGGCTTG)	0.36
GTTCGTGCATGGACCGGTTTTCCCGGTAATCCGTATTTGCA (site GTTCGTGCTTG)	1.96
GTTGAGACATGGACCGGTTTTCCCGGTAATCCGTATTTGAC (site GTTGAGACTGT)	2.94
GTTGCTGCATGGACCGGTTTTCCCGGTAATCCGTATTTGAG (site GTTGCTGCTCT)	0.388
GTTGGACCATGGACCGGTTTTCCCGGTAATCCGTATTTGCC (site GTTGGACCTGG)	0
